According to patent publication US11084807B2, “Piperazine derivatives, pharmaceutical compositions and methods of use thereof” (Vidac Pharma Ltd., priority 2016, dated 2021):
Where two headings read alike, the source gives them in different places.

How the values were obtained:
Assay type in all cases: cell-based
PC3 prostate cancer line = experiment: Cytotoxicity, PC3 prostate cancer cells; conditions: 25 mM glucose, 1500 cell/well, 10% FCS, 72 hours, read-out: IC50 (μM), prostate cancer cell line (Table 4)
[1] = test system: Panc-1 Human pancreatic carcinoma cell-line; experiment: XTT cytotoxicity, Panc-1 pancreatic carcinoma cells; conditions: Panc-1, XTT, 72 hr
Description: The piperazine-derivatives were prepared as a stock of 50 mM in 100% DMSO (dimethyl sulfoxide). […] Each experimental point was performed in triplicates. Vehicle (DMSO)-treated cells were used as control. Dilutions were performed in culture medium and DMSO so that the final concentration of DMSO in each well was 0.5%.
(§1) Optical density representing viable cells was determined using the XTT Cell Proliferation Kit assay (sodium 2,3,-bis(2-methoxy-4-nitro-5-sulfophenyl)-5-[(phenylamino)-carbonyl]-2H-tetrazolium inner salt, Biological industries, Beit-Haemek, Israel).
(§2) Percentage of Optical density is directly proportional to the number of living cells in culture. Cytotoxicity (%) was calculated in the following way: [(OD of drug-treated cells-OD of background)/(OD of control cells-OD of background)]×100.
(§3) New piperazine derivatives were tested for cytotoxicity in 4 cancer cell lines:
D) Panc-1—Human pancreatic carcinoma cell-line

[2] = test system: HCT116 Human colon carcinoma cell-line; experiment: XTT cytotoxicity, HCT116 colon carcinoma cells; conditions: HCT-116, 72 hr
Description: (§4) The piperazine-derivatives were prepared as a stock of 50 mM in 100% DMSO (dimethyl sulfoxide). Piperazine-derivatives were added at concentration ranging from 0.03-10 uM for 72 hours. Each experimental point was performed in triplicates. Vehicle (DMSO)-treated cells were used as control. Dilutions were performed in culture medium and DMSO so that the final concentration of DMSO in each well was 0.5%.
as §1, §2, §3
A) HCT116—Human colon carcinoma cell-line

[3] = test system: H358 Human lung carcinoma cell-line; experiment: XTT cytotoxicity, H358 lung carcinoma cells
Description: as §4, §1, §2, §3
C) H358—Human lung carcinoma cell-line
New piperazine derivatives (compounds of Formula (IV)) were tested for cytotoxicity in the H358 human lung carcinoma cell line. Table 2 below provides IC50 values for the tested compounds.
New piperazine derivatives (compounds of Formula (V)) were tested for cytotoxicity in the H358 human lung carcinoma cell line. Table 3 below provide IC50 values for the tested compounds.

[4] = test system: Hela Human cervix adenocarcinoma cell-line; experiment: XTT cytotoxicity, Hela cervix adenocarcinoma cells; conditions: 72 hr
Description: as §4, §1, §2, §3
B) Hela—Human cervix adenocarcinoma cell-line

[5] = NCI-H358, H358, XTT, 72 hr (Table 1), read-out: IC50 (XTT, 72 hr) Lung H358
[6] = NCI-H358, H358 lung cancer line, 11.5 mM glucose, 5000 cell/well, 0.5% FCS, 72 hours, read-out: IC50 (μM), lung cancer cell line (Table 2)
[7] = NCI-H358, H358 lung cancer line, 11.5 mM glucose, 5000 cell/well, 0.5% FCS, 72 hours, read-out: IC50 (μM), lung cancer cell line (Table 3)

| SMILES | IC50 [1] [nM] | IC50 [3, 6] [µM] | IC50 [4] [nM] | other results |
| --- | --- | --- | --- | --- |
| O=C(N1CCN(c2ccccc2)CC1)N1c2ccccc2Oc2ccccc21 [Compound 1] | 10 | 0.025 | 15 | IC50 (PC3 prostate cancer line): 0.026 µM; IC50 [2]: 10 nM; IC50 [3, 5]: 0.05 µM |
| O=C(N1CCN(c2c(F)c(F)c(F)c(F)c2F)CC1)N1c2ccccc2Oc2ccccc21 [Compound 2] | > 30000 | > 10 | 1900 | – |
| O=C(C1c2ccccc2Sc2ccccc21)N1CCN(c2ccccc2)CC1 [Compound 3] | 310 | 0.43 | 500 | IC50 [2]: 640 nM; IC50 [3, 5]: 1.35 µM |
| O=C(N1CCN(c2c(F)cccc2F)CC1)N1c2ccccc2Oc2ccccc21 [Compound 5] | 900 | 0.265 | 400 | IC50 [2]: 1080 nM; IC50 [3, 5]: 0.84 µM |
| COc1cccc(N2CCN(C(=O)N3c4ccccc4Oc4ccccc43)CC2)c1 [Compound 11] | – | 0.0047 | – | – |
| COc1ccccc1N1CCN(C(=O)N2c3ccccc3Oc3ccccc32)CC1 [Compound 12] | – | 0.0066 | – | – |
| O=C(N1CCN(c2cc(F)cc(F)c2)CC1)N1c2ccccc2Oc2ccccc21 [Compound 13] | – | 0.0067 | – | – |
| O=C(N1CCN(c2ccc(O)cc2)CC1)N1c2ccccc2Oc2ccccc21 [Compound 14] | – | 0.051 | – | – |
| O=C(N1CCN(c2ccc(F)cc2)CC1)N1c2ccccc2Oc2ccccc21 [Compound 15] | – | 0.24 | – | – |
| O=C(N1CCC(c2ccccc2)CC1)N1c2ccccc2Oc2ccccc21 [Compound 16] | – | 1.37 | – | – |
| O=C(N1CCN(c2ccccc2)CC1)n1c2ccccc2c2ccccc21 [Compound 20] | – | – | – | IC50 [3, 7]: 0.027 µM |
| O=C(N1CCN(c2cc(F)cc(F)c2)CC1)n1c2ccccc2c2ccccc21 [Compound 23] | – | – | – | IC50 (PC3 prostate cancer line): 0.08 µM; IC50 [3, 7]: 0.009 µM |
